From PMC6138237, “Machine intelligence decrypts β-lapachone as an allosteric 5-lipoxygenase inhibitor” (Chemical Science, 2018)
pIC50: −log10 of the molar value. Like-named read-outs stand apart in the source and are kept apart here.

Columns and labels:
Pim2 = Pim2 (Homo sapiens, UniProt Q9P1W9); test: ExpresS Diversity Kinase Profile, Cerep (LANCE): Pim2; type: biochemical; conditions: Flag: Interference
12-LO = target: T1, 12-LO (Homo sapiens, UniProt P18054); test: 12-LO inhibition assay, Cerep (Method A, photometry); type: biochemical
T1 sequence (P18054 1-663): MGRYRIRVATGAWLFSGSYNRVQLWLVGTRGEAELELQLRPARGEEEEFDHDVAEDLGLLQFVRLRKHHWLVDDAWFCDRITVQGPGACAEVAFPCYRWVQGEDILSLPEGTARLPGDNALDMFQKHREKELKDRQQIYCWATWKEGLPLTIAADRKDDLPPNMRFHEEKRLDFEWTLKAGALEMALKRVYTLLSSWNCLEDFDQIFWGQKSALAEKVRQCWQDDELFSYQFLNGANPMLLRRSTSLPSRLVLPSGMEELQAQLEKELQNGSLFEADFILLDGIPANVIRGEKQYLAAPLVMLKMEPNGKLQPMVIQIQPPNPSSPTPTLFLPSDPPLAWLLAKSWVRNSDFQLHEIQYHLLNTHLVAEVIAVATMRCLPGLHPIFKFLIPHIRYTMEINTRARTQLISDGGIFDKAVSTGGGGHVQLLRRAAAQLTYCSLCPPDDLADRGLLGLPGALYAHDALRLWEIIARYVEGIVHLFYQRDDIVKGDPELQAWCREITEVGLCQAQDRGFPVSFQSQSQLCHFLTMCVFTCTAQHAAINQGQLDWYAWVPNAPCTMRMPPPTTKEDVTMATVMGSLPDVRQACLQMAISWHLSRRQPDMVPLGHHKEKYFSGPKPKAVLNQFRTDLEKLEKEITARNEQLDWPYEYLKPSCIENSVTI

PKCβ2 = PKCβ2 (Homo sapiens, UniProt P05771); test: ExpresS Diversity Kinase Profile, Cerep (LANCE): PKCβ2; type: biochemical
Chain of PKCβ2 (P05771 1-673 isoform P05771-2): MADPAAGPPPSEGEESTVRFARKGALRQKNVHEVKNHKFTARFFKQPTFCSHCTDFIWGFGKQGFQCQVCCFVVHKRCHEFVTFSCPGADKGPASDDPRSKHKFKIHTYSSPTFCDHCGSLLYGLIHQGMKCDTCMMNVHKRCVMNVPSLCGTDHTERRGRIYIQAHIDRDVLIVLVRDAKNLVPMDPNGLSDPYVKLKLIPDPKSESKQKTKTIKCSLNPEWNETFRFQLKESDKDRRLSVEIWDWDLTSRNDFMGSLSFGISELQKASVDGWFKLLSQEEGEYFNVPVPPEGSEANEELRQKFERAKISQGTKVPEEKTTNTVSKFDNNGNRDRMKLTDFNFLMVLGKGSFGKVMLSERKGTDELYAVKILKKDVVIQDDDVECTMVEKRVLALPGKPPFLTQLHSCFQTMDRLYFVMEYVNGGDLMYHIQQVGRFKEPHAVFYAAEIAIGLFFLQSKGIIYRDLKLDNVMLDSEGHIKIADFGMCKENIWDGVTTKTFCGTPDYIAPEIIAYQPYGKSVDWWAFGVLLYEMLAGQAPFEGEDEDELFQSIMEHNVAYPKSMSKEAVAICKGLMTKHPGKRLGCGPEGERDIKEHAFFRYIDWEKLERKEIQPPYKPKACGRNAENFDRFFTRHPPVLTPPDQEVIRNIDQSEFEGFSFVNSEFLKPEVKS

[1] = test system: Staphylococcus aureus ATCC 25923; test: Minimum inhibitory concentration assay, Staphylococcus aureus; conditions: concentrations up to 50 µM
5-LO = target: T2, 5-LO (Homo sapiens, UniProt P09917); test: 5-LO inhibition assay, Cerep (Method A, indirect fluorogenic readout, Rhodamine 123); type: biochemical
T2 sequence (P09917 1-674): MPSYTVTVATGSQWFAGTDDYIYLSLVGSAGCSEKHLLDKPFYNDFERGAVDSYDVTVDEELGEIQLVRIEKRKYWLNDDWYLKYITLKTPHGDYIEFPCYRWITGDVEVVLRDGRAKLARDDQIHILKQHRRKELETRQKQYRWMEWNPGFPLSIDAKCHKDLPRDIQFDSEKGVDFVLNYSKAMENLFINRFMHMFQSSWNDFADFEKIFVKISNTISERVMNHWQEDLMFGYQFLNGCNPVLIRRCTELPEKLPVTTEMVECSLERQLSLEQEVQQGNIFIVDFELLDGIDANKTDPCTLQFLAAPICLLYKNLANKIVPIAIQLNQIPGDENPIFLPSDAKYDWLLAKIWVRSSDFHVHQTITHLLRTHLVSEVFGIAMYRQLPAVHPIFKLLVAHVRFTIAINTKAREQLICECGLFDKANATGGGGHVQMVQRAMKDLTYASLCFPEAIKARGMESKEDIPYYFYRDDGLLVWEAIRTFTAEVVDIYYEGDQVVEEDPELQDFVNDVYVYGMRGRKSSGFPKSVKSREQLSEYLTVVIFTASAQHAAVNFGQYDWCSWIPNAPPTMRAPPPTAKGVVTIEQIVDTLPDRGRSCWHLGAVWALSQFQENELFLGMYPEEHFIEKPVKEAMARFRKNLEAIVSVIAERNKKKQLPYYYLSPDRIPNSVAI

PDE5 = PDE5 (Homo sapiens, UniProt O76074); test: Phosphodiesterase 5 inhibition assay, Cerep (scintillation counting); type: biochemical; conditions: for percent inhibition at 2 µM: PDE5
CHK2 = CHK2 (Homo sapiens, UniProt O96017); test: ExpresS Diversity Kinase Profile, Cerep (LANCE): CHK2; type: biochemical
Chain of CHK2 (O96017 whole entry): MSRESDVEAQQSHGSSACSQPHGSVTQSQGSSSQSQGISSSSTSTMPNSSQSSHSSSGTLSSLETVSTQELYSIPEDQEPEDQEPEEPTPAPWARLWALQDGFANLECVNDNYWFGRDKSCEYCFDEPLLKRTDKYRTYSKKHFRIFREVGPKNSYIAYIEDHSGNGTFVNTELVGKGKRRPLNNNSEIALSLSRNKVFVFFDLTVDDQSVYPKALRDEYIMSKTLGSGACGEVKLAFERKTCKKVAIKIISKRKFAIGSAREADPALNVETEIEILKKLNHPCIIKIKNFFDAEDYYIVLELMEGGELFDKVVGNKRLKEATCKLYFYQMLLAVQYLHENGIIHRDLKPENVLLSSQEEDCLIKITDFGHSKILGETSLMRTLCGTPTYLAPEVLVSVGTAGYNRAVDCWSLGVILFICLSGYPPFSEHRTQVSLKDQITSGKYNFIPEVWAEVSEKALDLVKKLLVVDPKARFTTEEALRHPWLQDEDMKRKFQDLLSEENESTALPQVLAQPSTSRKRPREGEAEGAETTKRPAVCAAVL

15-LO-2 = target: T3, 15-LO-2 (Homo sapiens, UniProt O15296); test: 15-LO-2 inhibition assay, Cerep (Method A, fluorometry); type: biochemical; conditions: 5 µM
T3 sequence (O15296 1-676): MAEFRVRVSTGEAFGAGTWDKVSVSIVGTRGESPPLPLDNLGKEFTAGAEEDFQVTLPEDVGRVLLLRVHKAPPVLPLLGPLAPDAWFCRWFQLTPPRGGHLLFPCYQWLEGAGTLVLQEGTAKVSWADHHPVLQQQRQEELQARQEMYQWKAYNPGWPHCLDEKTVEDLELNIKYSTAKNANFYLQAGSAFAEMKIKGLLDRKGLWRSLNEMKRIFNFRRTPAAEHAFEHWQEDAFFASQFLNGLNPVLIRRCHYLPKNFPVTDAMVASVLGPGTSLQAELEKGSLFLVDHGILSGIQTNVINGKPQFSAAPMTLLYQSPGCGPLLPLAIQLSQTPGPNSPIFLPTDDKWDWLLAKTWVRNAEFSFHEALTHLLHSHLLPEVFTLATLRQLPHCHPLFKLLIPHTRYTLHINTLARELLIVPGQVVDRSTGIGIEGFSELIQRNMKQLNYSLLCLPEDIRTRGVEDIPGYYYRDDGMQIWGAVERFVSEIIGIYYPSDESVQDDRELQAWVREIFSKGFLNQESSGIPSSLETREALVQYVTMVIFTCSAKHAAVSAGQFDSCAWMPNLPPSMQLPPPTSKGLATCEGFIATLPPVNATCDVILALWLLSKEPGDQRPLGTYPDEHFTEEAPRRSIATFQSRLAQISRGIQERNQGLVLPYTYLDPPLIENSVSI

15-LO = 15-LO inhibition in intact human neutrophils; conditions: read-out: IC50 (15-LO), without DTT
TRPM8 = target: T4, TRPM8 (Homo sapiens, UniProt Q7Z2W7); test: TRPM8 functional antagonist assay, Cerep (icilin 100 nM); type: cell-based
T4 construct: Cerep, SA (fee-for-service assay) printed G018533 (citation number 33 glued on)
T4 sequence (Q7Z2W7 whole entry): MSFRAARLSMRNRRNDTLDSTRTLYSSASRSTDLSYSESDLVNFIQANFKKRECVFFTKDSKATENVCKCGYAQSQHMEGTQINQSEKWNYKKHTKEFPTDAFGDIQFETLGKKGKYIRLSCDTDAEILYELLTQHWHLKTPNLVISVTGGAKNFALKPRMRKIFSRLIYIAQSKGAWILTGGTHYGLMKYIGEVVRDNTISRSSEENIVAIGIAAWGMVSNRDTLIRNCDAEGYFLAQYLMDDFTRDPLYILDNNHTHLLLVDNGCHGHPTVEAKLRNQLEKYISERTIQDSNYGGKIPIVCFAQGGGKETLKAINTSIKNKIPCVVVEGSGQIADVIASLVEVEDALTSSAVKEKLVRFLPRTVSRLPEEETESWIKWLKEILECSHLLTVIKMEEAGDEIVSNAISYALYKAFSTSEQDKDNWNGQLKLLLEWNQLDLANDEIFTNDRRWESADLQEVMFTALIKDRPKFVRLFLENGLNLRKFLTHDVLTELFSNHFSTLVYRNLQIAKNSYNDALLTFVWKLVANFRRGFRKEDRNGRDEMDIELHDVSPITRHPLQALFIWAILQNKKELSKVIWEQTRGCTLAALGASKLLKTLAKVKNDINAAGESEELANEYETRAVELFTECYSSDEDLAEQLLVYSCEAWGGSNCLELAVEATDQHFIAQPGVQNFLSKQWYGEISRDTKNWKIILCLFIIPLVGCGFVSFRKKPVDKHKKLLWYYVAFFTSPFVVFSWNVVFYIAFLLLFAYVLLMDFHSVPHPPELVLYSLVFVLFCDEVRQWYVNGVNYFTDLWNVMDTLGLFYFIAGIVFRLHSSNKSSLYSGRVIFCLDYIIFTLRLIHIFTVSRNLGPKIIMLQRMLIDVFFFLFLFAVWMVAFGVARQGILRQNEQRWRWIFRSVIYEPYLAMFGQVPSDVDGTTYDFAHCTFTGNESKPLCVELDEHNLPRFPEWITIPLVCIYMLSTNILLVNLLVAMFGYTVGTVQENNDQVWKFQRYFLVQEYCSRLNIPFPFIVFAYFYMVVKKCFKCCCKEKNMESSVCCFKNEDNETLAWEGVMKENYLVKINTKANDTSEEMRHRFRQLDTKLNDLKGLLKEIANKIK

[2] = read-out: % Inhibition of control values, 1st measurement
[3] = read-out: % Inhibition of control values, 2nd measurement
[4] = read-out: % inhibition of control values, Mean

Chain of Pim2 (Q9P1W9 whole entry): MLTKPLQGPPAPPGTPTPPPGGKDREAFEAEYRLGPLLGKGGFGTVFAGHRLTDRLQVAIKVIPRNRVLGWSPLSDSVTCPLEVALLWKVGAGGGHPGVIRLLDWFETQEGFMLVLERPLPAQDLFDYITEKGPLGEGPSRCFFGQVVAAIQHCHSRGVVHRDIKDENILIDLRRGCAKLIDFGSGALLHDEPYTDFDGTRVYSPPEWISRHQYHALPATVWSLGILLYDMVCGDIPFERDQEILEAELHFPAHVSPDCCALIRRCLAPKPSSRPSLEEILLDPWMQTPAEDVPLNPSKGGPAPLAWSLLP

`CC1(C)CCC2=C(O1)c1ccccc1C(=O)C2=O` [β-Lapachone] showed an inhibition at 150 µM (Pim2; [2]) of 79.6%, an inhibition at 150 µM (Pim2; [3]) of 82.6% and an inhibition at 5 µM (12-LO; 12-LO, 5 µM, read-out: % inhibition of control values, 1st measure) of 40.7%. It also gave an inhibition at 5 µM (12-LO; 12-LO, 5 µM, read-out: % inhibition of control values, 2nd measure) of 35.3%, an inhibition at 5 µM (12-LO; [4]) of 38% and an inhibition at 150 µM (PKCβ2; n = 2, read-out: % Inhibition of control values, Mean) of 34%. For the same compound, the inhibition at 150 µM (PKCβ2; [2]) was 36.5%, the inhibition at 150 µM (PKCβ2; [3]) was 31.6% and the “phenotypic effects on Staphylococcus aureus” value [1] was “No phenotypic effects”. The “ligand efficiency (LE)” value (5-LO; 5-LO) was 0.44, the inhibition at 5 µM (5-LO; 5-LO, n = 2, read-out: % inhibition of control values, Mean) was 102% and the inhibition at 5 µM (5-LO; 5-LO, read-out: % inhibition of control values, 1st measure) was 103%. It also gave an inhibition at 5 µM (5-LO; 5-LO, read-out: % inhibition of control values, 2nd measure) of 99.8%, an inhibition at 150 µM (5-LO; 5-LO, 150 µM, read-out: % inhibition of control values, 1st measure) of 98.4% and an inhibition at 150 µM (5-LO; 5-LO, 150 µM, read-out: % inhibition of control values, 2nd measure) of 92.9%. For the same compound, the IC50 (5-LO; 5-LO, indirect fluorogenic readout, read-out: Experimental –log(IC50 or KD) (converted)) was 2510 nM, the “ligand efficiency (LE)” value (5-LO; 5-LO, listed as 1) was over 0.30 and the pIC50 (5-LO; IC50, 5-LO, indirect fluorescence detection (Cerep), n = 2) was 5.68. It also gave an inhibition at 150 µM (5-LO; [4]) of 95.7%, a pIC50 (PDE5) of under 5.00 and a percent inhibition at 2 µM (PDE5; n = 2, read-out: % of control values, Mean) of -8.3%. The percent inhibition at 2 µM (PDE5; read-out: % of control values, 1st measurement) was -6.9%, the percent inhibition at 2 µM (PDE5; read-out: % of control values, 2nd measurement) was -9.7% and the “activity against PDE5” value (PDE5; screening against phosphodiesterase 5) was “inactivity”. For the same compound, the inhibition at 150 µM (CHK2; Flag: Interference, read-out: % Inhibition of control values, 1st measurement) was 46.6%, the inhibition at 150 µM (CHK2; Flag: Interference, read-out: % Inhibition of control values, 2nd measurement) was 59.5% and the inhibition at 150 µM (CHK2; n = 2, Flag: Interference, read-out: % Inhibition of control values, Mean) was 53.1%. It also gave an inhibition at 5 µM (15-LO-2; n = 2, read-out: % inhibition of control values, Mean) of -12.9%, an inhibition at 5 µM (15-LO-2; read-out: % inhibition of control values, 1st measure) of -12% and an inhibition at 5 µM (15-LO-2; read-out: % inhibition of control values, 2nd measure) of -13.8%. For the same compound, the pIC50 (15-LO) was under 4.52 and the pIC50 (TRPM8) was under 4.00.
